Values of other authors in patent US20210187081A1, “FORMULATIONS AND DOSES OF PEGYLATED URICASE” (Selecta Biosciences, Inc., priority 2019, published 2021).
Where two headings read alike, the source gives them in different places.

How the values were obtained:
[1] = system: Patients with Hyperuricemia and Gout; conditions: for Subjects who required treatment for at least one gout flare: first 8 weeks, with gout flare prophylaxis
[2] = system: patients with gout with an inadequate response to allopurinol; conditions: for Patients with gout flares requiring treatment in a month: colchicine prophylaxis

Row | SMILES | Flares per patient month (flare frequency) ([1]; 80 mg/day) [flares per patient month] | Subjects who required treatment for at least one gout flare ([1]; 80 mg/day) | Flares per patient month (flare frequency) ([1]; 80 mg/day, listed as febuxostat) | Flares per patient month (flare frequency) ([1]; 120 mg/day) [flares per patient month] | Subjects who required treatment for at least one gout flare ([1]; 120 mg/day) | Flares per patient month (flare frequency) ([1]; 120 mg/day, listed as febuxostat) [flares per patient month] | Patients with gout flares requiring treatment in a month ([2]; 200 mg daily) | Flares per patient month (flare frequency) ([2]; 200 mg/day) [flares per patient month] | Time of efficacy (area under curve of mean sUA levels over time) ([2]; 200 mg/day) | Patients with gout flares requiring treatment in a month ([2]; 400 mg daily) | Flares per patient month (flare frequency) ([2]; 400 mg/day) [flares per patient month] | Time of efficacy (area under curve of mean sUA levels over time) ([2]; 400 mg/day) | Patients with gout flares requiring treatment in a month ([2]; 600 mg daily) | Flares per patient month (flare frequency) ([2]; 600 mg/day) [flares per patient month] | Time of efficacy (area under curve of mean sUA levels over time) ([2]; 600 mg/day)
1 | Cc1nc(-c2ccc(OCC(C)C)c(C#N)c2)sc1C(=O)O [Febuxostat, febuxostat] | 0.22 | 55 out of 255 | at least 0.22 flares per patient month | 0.36 | 90 out of 250 | ≥ 0.36 | – | – | – | – | – | – | – | – | –
2 | O=C(O)CSc1nnc(Br)n1-c1ccc(C2CC2)c2ccccc12 [Lesinurad, lesinurad] | – | – | – | – | – | – | 10 out of 46 | 0.22 | 158.5 | 13 out of 42 | 0.31 | 165.8 | 15 out of 48 | 0.31 | 167.5
